These results are taken from ChEMBL document CHEMBL1149093, “Design and synthesis of new templates derived from pyrrolopyrimidine as selective multidrug-resistance-associated protein inhibitors in multidrug resistance” (J Med Chem, 2004).

The Cmax is the peak of the concentration-time curve. Broadly, the half-life is how long it takes for the measured level to halve. Low readings indicate rapid decline, high ones slow decline. Usually AUC stands for concentration integrated over time.

A short description of data set [1]: in vivo. The note with it: mouse, plasma, ip, 50 mg/kg.
A short description of data set [2]: in vivo. The note with it: mouse, ip, 50 mg/kg.
Data set [3] is described as follows: in vivo. The conditions noted are these: mouse, ip, 50 mg/kg. The source holds these as a separate data set.
Data set [4] in a line: in vivo. The conditions noted are these: mouse, iv, 20 mg/kg.
The nature of data set [5]: in vivo. The note with it: mouse, iv, 20 mg/kg. This is another data set of the same source.
The nature of data set [6]: in vivo. The note with it: mouse, plasma, iv, 20 mg/kg.

Consider `O=[N+]([O-])c1cc([N+](=O)[O-])c2[nH]c3c(N4CCN(CCc5ccc(F)c(F)c5)CC4)nc(CN4CCOCC4)nc3c2c1`, for which the peak concentration (Cmax) in “in vivo [1]” was 26.4 µM; in the data set “in vivo [6]” it was 9 µM. For the same molecule, the half-life was 6.86 h in “in vivo [2]” and 2.4 h in the data set “in vivo [5]”. For the same molecule, the area under the curve (AUC) in the data set “in vivo [3]” stood at 30600 ng·h/mL; in “in vivo [4]” it was 5100 ng·h/mL.
Turning to `Cn1c2ccnc(N3CCOCC3)c2c2ncnc(N3CCN(CCc4ccc(F)c(F)c4)CC3)c21`, the AUC in “in vivo [4]” stood at 6320 ng·h/mL. Also, in “in vivo [5]”, the half-life is 1.97 h. In addition, the peak level in the data set “in vivo [6]” (Cmax) was 11.9 µM.
As for `Cn1c2cccc(C(N)=O)c2c2nc(CN3CCOCC3)nc(N3CCN(CCc4ccc(F)c(F)c4)CC3)c21`, the AUC in “in vivo [4]” came to 14000 ng·h/mL. For the same molecule, the half-life in the data set “in vivo [5]” is 3.03 h. The same molecule showed a Cmax in “in vivo [6]” of 15 µM.
